Reference: patent US20240316047A1, “INHIBITORS OF RNA HELICASE DHX9 AND USES THEREOF” (ACCENT THERAPEUTICS, INC., priority 2022, published 2024)

Biological target: Human recombinant DHX9 protein (Homo sapiens (Human), UniProt Q08211)
Experiment: DHX9 ATPase assay (ADP-Glo)
Assay type: biochemical
Conditions: for IC50: read-out: DHX9 Biochemical Inflection Point

Chain of Human recombinant DHX9 protein (Q08211 whole entry): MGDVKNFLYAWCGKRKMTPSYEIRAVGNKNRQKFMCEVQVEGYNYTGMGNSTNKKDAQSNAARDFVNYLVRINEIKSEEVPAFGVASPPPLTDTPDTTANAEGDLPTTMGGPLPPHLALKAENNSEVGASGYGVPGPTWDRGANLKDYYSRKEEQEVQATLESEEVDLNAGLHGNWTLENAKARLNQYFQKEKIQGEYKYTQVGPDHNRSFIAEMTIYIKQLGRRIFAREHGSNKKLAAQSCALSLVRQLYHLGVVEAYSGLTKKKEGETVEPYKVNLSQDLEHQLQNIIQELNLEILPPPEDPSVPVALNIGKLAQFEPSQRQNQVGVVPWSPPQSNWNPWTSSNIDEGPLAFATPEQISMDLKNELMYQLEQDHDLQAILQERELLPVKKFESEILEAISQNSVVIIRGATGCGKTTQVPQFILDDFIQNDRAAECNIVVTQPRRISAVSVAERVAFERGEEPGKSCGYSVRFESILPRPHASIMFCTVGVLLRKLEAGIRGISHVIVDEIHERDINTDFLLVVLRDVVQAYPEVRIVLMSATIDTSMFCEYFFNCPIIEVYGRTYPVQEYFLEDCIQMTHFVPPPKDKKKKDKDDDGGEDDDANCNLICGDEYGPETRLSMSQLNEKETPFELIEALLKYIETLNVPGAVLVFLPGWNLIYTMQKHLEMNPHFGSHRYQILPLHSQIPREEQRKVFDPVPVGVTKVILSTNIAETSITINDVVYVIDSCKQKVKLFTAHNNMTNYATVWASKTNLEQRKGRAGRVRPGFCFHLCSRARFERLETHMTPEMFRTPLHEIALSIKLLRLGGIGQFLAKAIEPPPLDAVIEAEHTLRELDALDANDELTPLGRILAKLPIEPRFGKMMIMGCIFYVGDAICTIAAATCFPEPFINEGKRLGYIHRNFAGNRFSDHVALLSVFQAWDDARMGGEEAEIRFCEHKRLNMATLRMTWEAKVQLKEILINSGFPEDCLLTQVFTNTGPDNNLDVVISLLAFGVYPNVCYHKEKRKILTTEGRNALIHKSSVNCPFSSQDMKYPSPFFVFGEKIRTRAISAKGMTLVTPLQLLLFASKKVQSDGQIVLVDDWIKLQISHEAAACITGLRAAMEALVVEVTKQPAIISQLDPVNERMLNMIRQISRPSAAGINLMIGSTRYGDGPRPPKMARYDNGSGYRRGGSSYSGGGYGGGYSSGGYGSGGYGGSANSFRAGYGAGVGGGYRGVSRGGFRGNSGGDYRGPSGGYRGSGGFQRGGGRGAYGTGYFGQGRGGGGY

Cc1cc(F)cnc1-c1cc(C(=O)Nc2cc(Cl)cc(NS(C)(=O)=O)c2)cn1C [Example 545]
DHX9 Biochemical Max Inhibition: 64.7 | IC50: 74.2 nM

Cc1cc(C(=O)Nc2cc(Cl)cc(NS(C)(=O)=O)c2)cn1-c1ccc(OC2COC2)cn1 [Example 668]
DHX9 Biochemical Max Inhibition: 82.3 | IC50: 7.3 nM

Cn1cc(C(=O)Nc2cc(Cl)cc(NS(C)(=O)=O)c2)cc1-c1ccc(N2CCC(F)(F)C2)cn1 [Example 527]
DHX9 Biochemical Max Inhibition: 65.3 | IC50: 42.4 nM

Cc1cc(N2CC(F)(F)C2)cnc1-c1cc(C(=O)Nc2cc(Cl)cc(NS(C)(=O)=O)c2)sc1C [Example 537]
DHX9 Biochemical Max Inhibition: 63 | IC50: 20.8 nM

COc1ccc(-n2cc(C(=O)Nc3cc(Cl)cc(NS(C)(=O)=O)c3)cc2C)nc1 [Example 391]
DHX9 Biochemical Max Inhibition: 78.5 | IC50: 8.9 nM

Cc1sc(C(=O)Nc2cc(Cl)cc(NS(C)(=O)=O)c2)cc1-c1ncccc1OCc1ccccc1 [Example 34]
DHX9 Biochemical Max Inhibition: 75.2% | IC50: 6.3 nM

CS(=O)(=O)Nc1cc(Br)cc(NC(=O)c2cc(-c3cccnc3)cs2)c1 [Example 78]
DHX9 Biochemical Max Inhibition: 56.2% | IC50: 31.9 nM

Cc1cc(C(=O)Nc2cc(Cl)cc(NS(C)(=O)=O)c2)cn1-c1ncc(N2CC(F)(F)C2)cc1Cl [Example 406]
DHX9 Biochemical Max Inhibition: 75.7 | IC50: 55.1 nM

CS(=O)(=O)Nc1cc(Cl)cc(NC(=O)c2cnn(-c3ccc(C4CCOCC4)cn3)c2)c1 [Example 190]
DHX9 Biochemical Max Inhibition: 68.8% | IC50: 19.1 nM

CS(=O)(=O)Nc1cc(Cl)cc(NC(=O)c2cc(-c3ncccc3C(F)(F)F)cs2)c1 [Example 223]
DHX9 Biochemical Max Inhibition: 75.7% | IC50: 56.5 nM

Cc1sc(C(=O)Nc2cc(Cl)cc(NS(C)(=O)=O)c2)cc1-c1ncc(N2CC(F)(F)C2)cn1 [Example 510]
DHX9 Biochemical Max Inhibition: 83.7 | IC50: 8.2 nM

Cc1sc(C(=O)Nc2cc(Cl)cc(NS(C)(=O)=O)c2)cc1-c1ncc(C#N)cc1F [Example 375]
DHX9 Biochemical Max Inhibition: 64.6% | IC50: 34.6 nM

COc1cnc(-n2cc(C(=O)Nc3cc(Cl)cc(NS(C)(=O)=O)c3)cc2C)nc1 [Example 441]
DHX9 Biochemical Max Inhibition: 72.6 | IC50: 26.5 nM

CS(=O)(=O)Nc1cc(Cl)cc(NC(=O)c2cnn(C3CC4CCC(C3)O4)c2)c1 (stereo not drawn) [Example 250]
DHX9 Biochemical Max Inhibition: 64.6% | IC50: 185 nM

CCc1nc2ccc(C(=O)Nc3cc(Cl)cc(NS(C)(=O)=O)c3)cn2c1N(C)C [Example 133]
DHX9 Biochemical Max Inhibition: 41.8% | IC50: 13600 nM

Cc1cccnc1-c1csc(C(=O)Nc2cc(F)cc(NS(C)(=O)=O)c2)c1 [Example 334]
DHX9 Biochemical Max Inhibition: 81.5% | IC50: 10.9 nM

Cn1cc(C(=O)Nc2cc(Cl)cc(NS(C)(=O)=O)c2)cc1-c1ccccc1 [Example 109]
DHX9 Biochemical Max Inhibition: 57.2% | IC50: 17.6 nM

Cc1sc(C(=O)Nc2cc(Cl)cc(NS(C)(=O)=O)c2)cc1-c1ncc(O)cn1 [Example 583]
DHX9 Biochemical Max Inhibition: 72.5 | IC50: 4.9 nM

Cc1sc(C(=O)Nc2cc(Br)cc(NS(C)(=O)=O)c2)cc1-c1ccccn1 [Example 23]
DHX9 Biochemical Max Inhibition: 69% | IC50: 3.2 nM

Cc1sc(C(=O)Nc2cc(Cl)cc(NS(C)(=O)=O)c2)cc1-c1ncc(N2CC(F)(F)C2)cc1OC(F)F [Example 536]
DHX9 Biochemical Max Inhibition: 69.7 | IC50: 45.3 nM

Cc1sc(C(=O)Nc2cc(Cl)cc(NS(C)(=O)=O)c2)cc1-c1ncc(N2CC(F)(F)C2)cc1OCC(F)(F)F [Example 707]
DHX9 Biochemical Max Inhibition: 67.1 | IC50: 28.3 nM

Cc1cc(C(=O)Nc2cc(Cl)cc(NS(C)(=O)=O)c2)cn1-c1ncc(N2CC(F)(F)C2)cn1 [Example 418]
DHX9 Biochemical Max Inhibition: 70.25 | IC50: 17 nM

CSc1ccc(-n2cc(C(=O)Nc3cc(Cl)cc(NS(C)(=O)=O)c3)cn2)nc1 [Example 218]
DHX9 Biochemical Max Inhibition: 59% | IC50: 76.5 nM

CS(=O)(=O)Nc1cc(Cl)cc(NC(=O)c2cc(CN)n(-c3ccccn3)c2)c1 [Example 181]
DHX9 Biochemical Max Inhibition: 57.4% | IC50: 9.6 nM

COCc1cc(C(=O)Nc2cc(Cl)cc(NS(C)(=O)=O)c2)cn1-c1ncccc1F [Example 682]
DHX9 Biochemical Max Inhibition: 85.4 | IC50: 83.5 nM

CS(=O)(=O)Nc1cc(Cl)cc(NC(=O)c2cc(-c3ccccc3)co2)c1 [Example 7]
DHX9 Biochemical Max Inhibition: 46.4% | IC50: 380 nM

Cc1cc(C(=O)Nc2cc(Cl)cc(NS(C)(=O)=O)c2)cn1-c1ccc(N2CCOC2=O)cn1 [Example 416]
DHX9 Biochemical Max Inhibition: 81.8 | IC50: 13.5 nM

Cc1sc(C(=O)Nc2cc(Cl)cc(NS(C)(=O)=O)c2)cc1-c1ncc(C(F)(F)F)cn1 [Example 357]
DHX9 Biochemical Max Inhibition: 91.7% | IC50: 85.6 nM

CCOc1ccc(-c2cc(C(=O)Nc3cc(Cl)cc(NS(C)(=O)=O)c3)cn2C)nc1 [Example 572]
DHX9 Biochemical Max Inhibition: 73.3 | IC50: 11.2 nM

Cc1cccnc1-c1nc(C(=O)Nc2cc(Br)cc(NS(C)(=O)=O)c2)cn1C [Example 96, N-(3-bromo-5-(methylsulfonamido)phenyl)-1-methyl-2-(3-methylpyridin-2-yl)-1H-imidazole-4-carboxamide]
DHX9 Biochemical Max Inhibition: 52.8% | IC50: 253 nM

CN(c1ncccn1)c1cccnc1-c1csc(C(=O)Nc2cc(Cl)cc(NS(C)(=O)=O)c2)c1 [Example 238]
DHX9 Biochemical Max Inhibition: 72.9% | IC50: 22.9 nM

CS(=O)(=O)Nc1cc(Cl)cc(NC(=O)c2cnn(C3CC4(COC4)C3)c2)c1 [Example 128]
DHX9 Biochemical Max Inhibition: 57.3% | IC50: 173 nM

Cc1cc(C(=O)Nc2cc(Cl)cc(NS(C)(=O)=O)c2)cn1-c1ncc([S+](C)[O-])cn1 (stereo not drawn) [Example 657]
DHX9 Biochemical Max Inhibition: 71.8 | IC50: 14.7 nM

CS(=O)(=O)Nc1cc(Cl)cc(NC(=O)c2cnn(-c3ccc(N4CC5(COC5)C4)cc3OCc3cccc(F)c3)c2)c1 [Example 722]
DHX9 Biochemical Max Inhibition: 74.4 | IC50: 19.1 nM

Cn1cc(C(=O)Nc2cc(Cl)cc(NS(C)(=O)=O)c2)cc1-c1ncccc1Oc1cccnc1 [Example 655]
DHX9 Biochemical Max Inhibition: 67.8 | IC50: 11.4 nM

Cn1cc(C(=O)Nc2cc(Cl)cc(NS(C)(=O)=O)c2)cc1-c1ccc(N2CC(CS(C)(=O)=O)C2)cn1 [Example 695]
DHX9 Biochemical Max Inhibition: 69.7 | IC50: 8.5 nM

COc1cccc2cc(C(=O)Nc3cc(Cl)cc(NS(C)(=O)=O)c3)sc12 [Example 303]
DHX9 Biochemical Max Inhibition: 57.2% | IC50: 4020 nM

Cc1sc(C(=O)Nc2cc(Cl)cc(NS(C)(=O)=O)c2)cc1-c1ncccc1OC(C)c1cc(F)cc(F)c1 (single isomer, unassigned) [Example 633]
DHX9 Biochemical Max Inhibition: 71.2 | IC50: 52.6 nM

CC(C)(O)COc1cccnc1-n1cc(C(=O)Nc2cc(Cl)cc(NS(C)(=O)=O)c2)cn1 [Example 195]
DHX9 Biochemical Max Inhibition: 67.1% | IC50: 35.3 nM

Cc1cc(C(=O)Nc2cc(Cl)cc(NS(C)(=O)=O)c2)cn1-c1ncc(F)cn1 [Example 207]
DHX9 Biochemical Max Inhibition: 70% | IC50: 15.2 nM

CCS(=O)(=O)Nc1cc(Cl)cc(NC(=O)c2cc(-c3ncc(F)cc3C)cs2)c1 [Example 226]
DHX9 Biochemical Max Inhibition: 73.6% | IC50: 8.4 nM

Cc1sc(C(=O)Nc2cc(Cl)cc(NS(C)(=O)=O)c2)cc1-c1ncc(C#N)cn1 [Example 585]
DHX9 Biochemical Max Inhibition: 70.9 | IC50: 22.9 nM
